# Reference: patent publication US9884868B2, “TGF-beta inhibitors” (Rigel Pharmaceuticals, Inc., priority 2015, dated 2018)
# Molecular target: HIS-TGF-βR1 T204D (Homo sapiens (Human), UniProt P36897, T204D)
# Assay: HTRF probe displacement assay with HIS-TGF-βR1 T204D
# Conditions: read-out: TGFbr1 IC50; HTRF probe displacement, 1 nM HIS-TGF-βR1 T204D, 1 hour at room temperature
# HIS-TGF-βR1 T204D, sequence (P36897 34-503 T204D): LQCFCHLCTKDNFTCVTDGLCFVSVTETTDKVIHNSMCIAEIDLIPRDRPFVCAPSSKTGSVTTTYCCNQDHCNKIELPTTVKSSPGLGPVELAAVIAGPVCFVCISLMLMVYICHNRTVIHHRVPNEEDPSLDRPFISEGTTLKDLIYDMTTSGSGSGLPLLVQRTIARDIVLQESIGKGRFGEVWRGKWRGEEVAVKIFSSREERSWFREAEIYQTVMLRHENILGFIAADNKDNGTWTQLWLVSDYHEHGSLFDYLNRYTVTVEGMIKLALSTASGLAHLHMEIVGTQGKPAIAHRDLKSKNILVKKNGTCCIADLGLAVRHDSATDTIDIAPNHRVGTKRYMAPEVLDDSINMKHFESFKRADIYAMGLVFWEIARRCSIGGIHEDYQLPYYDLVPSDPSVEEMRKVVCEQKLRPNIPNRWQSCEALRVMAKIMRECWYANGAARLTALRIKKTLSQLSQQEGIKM
row,Structure (SMILES),IC50 [nM]
1,"NC(=O)c1cnc2ccc(-c3c(-c4ccc(F)cc4)ncn3CCF)nn12 [111′, 6-(1-(2-fluoroethyl)-4-(4-fluorophenyl)-1H-imidazol-5-yl)imidazo[1,2-b]pyridazine-3-carboxamide]",0.8
2,N#Cc1cnc2ccc(-c3c(-c4ccc(F)cc4)ncn3[C@H]3C[C@@H](O)C3)nn12 [Example 2′],2.3
3,"N#Cc1cnc2ccc(-c3c(-c4ccc(F)cc4)ncn3C3CNC3)nn12 [190C′, 6-(1-(azetidin-3-yl)-4-(4-fluorophenyl)-1H-imidazol-5-yl)imidazo[1,2-b]pyridazin-3-carbonitrile]",86.2
4,"N#Cc1cnc2ccc(-c3c(-c4ccc(F)c(Cl)c4)ncn3C3CC3)nn12 [36′, 6-(4-(3-chloro-4-fluorophenyl)-1-cyclopropyl-1H-imidazol-5-yl)imidazo[1,2-b]pyridazine-3-carbonitrile]",1.3
5,"NC(=O)c1cnc2ccc(-c3c(-c4ccc(F)cc4)nc4n3CCC4)cn12 [Example 283′, 6-(2-(4-fluorophenyl)-6,7-dihydro-5H-pyrrolo[1,2-a]imidazol-3-yl)imidazo[1,2-a]pyridine-3-carboxamide]",0.9
6,"Cn1cnc(-c2ccc(F)cc2)c1-c1ccc2ncc(C(N)=O)n2n1 [134′, 6-(4-(4-fluorophenyl)-1-methyl-1H-imidazol-5-yl)imidazo[1,2-b]pyridazine-3-carboxamide]",3.9
7,"NC(=O)c1cnc2ccc(-c3c(-c4ccc(F)cc4)ncn3C3CC3)nn12 [109′, 6-(1-cyclopropyl-4-(4-fluorophenyl)-1H-imidazol-5-yl)imidazo[1,2-b]pyridazine-3-carboxamide]",2.5
8,"NC(=O)c1cnc2ccc(-c3c(-c4ccc(F)cc4)ncn3C(CO)CO)cn12 [171′, 6-(1-(1,3-dihydroxypropan-2-yl)-4-(4-fluorophenyl)-1H-imidazol-5-yl)imidazo[1,2-a]pyridine-3-carboxamide]",8.4
9,"CCC(C)n1cnc(-c2ccc(F)cc2)c1-c1ccc2ncc(C(N)=O)n2c1 (stereo not drawn) [174′, 6-(1-(sec-butyl)-4-(4-fluorophenyl)-1H-imidazol-5-yl)imidazo[1,2-a]pyridine-3-carboxamide]",0.6
10,"N#Cc1cnc2ccc(-c3c(-c4ccc(F)cc4)nc(N)n3CC(F)F)cn12 [Example 298′, 6-(2-amino-1-(2,2-difluoroethyl)-4-(4-fluorophenyl)-1H-imidazol-5-yl)imidazo[1,2-a]pyridine-3-carbonitrile]",44.8
11,"CC(O)c1cnc2ccc(-c3c(-c4ccc(F)cc4)ncn3CC(F)F)nn12 (stereo not drawn) [Example 214′, 1-(6-(1-(2,2-difluoroethyl)-4-(4-fluorophenyl)-1H-imidazol-5-yl)imidazo[1,2-b]pyridazin-3-yl)ethanol]",1.1
12,"N#Cc1cnc2ccc(-c3c(-c4ccc(F)cc4)ncn3CCCO)cn12 [75′, 6-(4-(4-fluorophenyl)-1-(3-hydroxypropyl)-1H-imidazol-5-yl)imidazo[1,2-a]pyridine-3-carbonitrile]",200
13,"Cc1ccc(-c2ncn(CC(F)F)c2-c2ccc3ncc(C#N)n3n2)cc1 [241′, 6-(1-(2,2-difluoroethyl)-4-(p-tolyl)-1H-imidazol-5-yl)imidazo[1,2-b]pyridazine-3-carbonitrile]",173
14,"NC(=O)c1cnc2ccc(-c3c(-c4ccc(F)c(Cl)c4)ncn3CCCCl)nn12 [149′, 6-(4-(3-chloro-4-fluorophenyl)-1-(3-chloropropyl)-1H-imidazol-5-yl)imidazo[1,2-b]pyridazine-3-carboxamide]",1.7
15,"C[C@@H](O)Cn1cnc(-c2ccc(F)cc2)c1-c1ccc2ncc(C(N)=O)n2c1 [155′, (R)-6-(4-(4-fluorophenyl)-1-(2-hydroxypropyl)-1H-imidazol-5-yl)imidazo[1,2-a]pyridine-3-carboxamide]",5.5
16,"CC(CO)n1cnc(-c2ccc(F)cc2)c1-c1ccc2ncc(C(N)=O)n2c1 (stereo not drawn) [152′, 6-(4-(4-fluorophenyl)-1-(1-hydroxypropan-2-yl)-1H-imidazol-5-yl)imidazo[1,2-a]pyridine-3-carboxamide]",1.1
17,"N#CC1(n2cnc(-c3ccc(F)cc3)c2-c2ccc3nccn3n2)CC1 [Example 188′, 1-(4-(4-fluorophenyl)-5-(imidazo[1,2-b]pyridazin-6-yl)-1H-imidazol-1-yl)cyclopropanecarbonitrile]",2
18,"N#Cc1cnc2ccc(-c3c(-c4ccc(F)cc4)ncn3C3CC(F)(F)C3)cn12 [66′, 6-(1-(3,3-difluorocyclobutyl)-4-(4-fluorophenyl)-1H-imidazol-5-yl)imidazo[1,2-a]pyridine-3-carbonitrile]",418
19,"Fc1ccc(-c2ncn(CC(F)F)c2-c2ccc3ncc(C4CC4)n3c2)cc1 [Example 285′, 3-cyclopropyl-6-(1-(2,2-difluoroethyl)-4-(4-fluorophenyl)-1H-imidazol-5-yl)imidazo[1,2-a]pyridine]",38.8
20,"NC(=O)c1cnc2ccc(-c3c(-c4ccc(F)cc4)ncn3C3CC(F)(F)C3)nn12 [106′, 6-(1-(3,3-difluorocyclobutyl)-4-(4-fluorophenyl)-1H-imidazol-5-yl)imidazo[1,2-b]pyridazine-3-carboxamide]",6.1

row,Structure (SMILES),IC50 [nM]
1,"CCn1cnc(-c2ccc(F)c(Cl)c2)c1-c1ccc2ncc(C#N)n2n1 [52′, 6-(4-(3-chloro-4-fluorophenyl)-1-ethyl-1H-imidazol-5-yl)imidazo[1,2-b]pyridazine-3-carbonitrile]",0.9
2,"N#Cc1cnc2ccc(-c3c(-c4ccc(F)c(Cl)c4)ncn3CCC3CC3)nn12 [61′, 6-(4-(3-chloro-4-fluorophenyl)-1-(2-cyclopropylethyl)-1H-imidazol-5-yl)imidazo[1,2-b]pyridazine-3-carbonitrile]",0.8
3,"OCCc1cnc2ccc(-c3c(-c4ccc(F)cc4)ncn3CC(F)F)nn12 [Example 217′, 2-(6-(1-(2,2-difluoroethyl)-4-(4-fluorophenyl)-1H-imidazol-5-yl)imidazo[1,2-b]pyridazin-3-yl)ethanol]",3.2
4,"CC1(n2cnc(-c3ccc(F)c(Cl)c3)c2-c2ccc3ncc(C#N)n3n2)COC1 [43′, 6-(4-(3-chloro-4-fluorophenyl)-1-(3-methyloxetan-3-yl)-1H-imidazol-5-yl)imidazo[1,2-b]pyridazine-3-carbonitrile]",2.7
5,"N#Cc1cnc2ccc(-c3c(-c4ccc(F)c(Cl)c4)ncn3CCCF)nn12 [54′, 6-(4-(3-chloro-4-fluorophenyl)-1-(3-fluoropropyl)-1H-imidazol-5-yl)imidazo[1,2-b]pyridazine-3-carbonitrile]",0.8
6,"N#Cc1cnc2ccc(-c3c(-c4ccc(F)c(Cl)c4)ncn3CCCCl)nn12 [44′, 6-(4-(3-chloro-4-fluorophenyl)-1-(3-chloropropyl)-1H-imidazol-5-yl)imidazo[1,2-b]pyridazine-3-carbonitrile]",1.2
7,"N#Cc1cnc2ccc(-c3c(-c4ccc(F)cc4)ncn3CCCF)cn12 [84′, 6-(4-(4-fluorophenyl)-1-(3-fluoropropyl)-1H-imidazol-5-yl)imidazo[1,2-a]pyridine-3-carbonitrile]",121
8,"Fc1ccc(-c2ncn(CC(F)F)c2-c2ccc3nncn3c2)cc1 [Example 281′, 6-(1-(2,2-difluoroethyl)-4-(4-fluorophenyl)-1H-imidazol-5-yl)-[1,2,4]triazolo[4,3-a]pyridine]",522
9,"Fc1ccc(-c2ncn(CC(F)F)c2-c2ccc3nccn3c2)cc1F [220′, 6-(1-(2,2-difluoroethyl)-4-(3,4-difluorophenyl)-1H-imidazol-5-yl)imidazo[1,2-a]pyridine]",41.4
10,"CC(C)n1cnc(-c2ccc(F)c(Cl)c2)c1-c1ccc2ncc(C(N)=O)n2n1 [116′, 6-(4-(3-chloro-4-fluorophenyl)-1-isopropyl-1H-imidazol-5-yl)imidazo[1,2-b]pyridazine-3-carboxamide]",0.9
11,"CCn1cnc(-c2ccc(F)cc2)c1-c1ccc2ncc(C(N)=O)n2n1 [112′, 6-(1-ethyl-4-(4-fluorophenyl)-1H-imidazol-5-yl)imidazo[1,2-b]pyridazine-3-carboxamide]",0.7
12,"N#Cc1cnc2ccc(-c3c(-c4ccccc4O)ncn3CC(F)F)nn12 [248′, 6-(1-(2,2-difluoroethyl)-4-(2-hydroxyphenyl)-1H-imidazol-5-yl)imidazo[1,2-b]pyridazine-3-carbonitrile]",0.7
13,"CC(C)(C)Cn1cnc(-c2ccc(F)cc2)c1-c1ccc2ncc(C#N)n2n1 [Example 270′, 6-(4-(4-fluorophenyl)-1-neopentyl-1H-imidazol-5-yl)imidazo[1,2-b]pyridazine-3-carbonitrile]",99.2
14,"Cc1nc(-c2ccc(F)cc2)c(-c2ccc3[nH]ncc3c2)n1CC(F)F [Example 273′, 5-(1-(2,2-difluoroethyl)-4-(4-fluorophenyl)-2-methyl-1H-imidazol-5-yl)-1H-indazole]",29.6
15,"N#Cc1cnc2ccc(-c3c(-c4cccc(O)c4)ncn3CC(F)F)nn12 [249′, 6-(1-(2,2-difluoroethyl)-4-(3-hydroxyphenyl)-1H-imidazol-5-yl)imidazo[1,2-b]pyridazine-3-carbonitrile]",2.2
16,"NC(=O)c1cnc2ccc(-c3c(-c4ccc(F)c(Cl)c4)ncn3CCO)nn12 [138′, 6-(4-(3-chloro-4-fluorophenyl)-1-(2-hydroxyethyl)-1H-imidazol-5-yl)imidazo[1,2-b]pyridazine-3-carboxamide]",0.7
17,"N#Cc1cnc2ccc(-c3c(-c4ccc(F)c(Cl)c4)ncn3CCCl)nn12 [60′, 6-(4-(3-chloro-4-fluorophenyl)-1-(2-chloroethyl)-1H-imidazol-5-yl)imidazo[1,2-b]pyridazine-3-carbonitrile]",0.9
18,"Fc1ccc(-c2ncn(CC(F)F)c2-c2ccc3ncc(C(F)F)n3n2)cc1 [Example 215′, 6-(1-(2,2-difluoroethyl)-4-(4-fluorophenyl)-1H-imidazol-5-yl)-3-(difluoromethyl)imidazo[1,2-b]pyridazine]",0.8
19,"CC1(Cn2cnc(-c3ccc(F)c(Cl)c3)c2-c2ccc3ncc(C#N)n3n2)CC1 [62′, 6-(4-(3-chloro-4-fluorophenyl)-1-((1-methylcyclopropyl)methyl)-1H-imidazol-5-yl)imidazo[1,2-b]pyridazine-3-carbonitrile]",1.6
